{
  "source": "paper PMC2947513",
  "about": "“Identification of an Archaeal Presenilin-Like Intramembrane Protease” (PLoS ONE, 2010)",
  "target": "T1, MCMJR1 (Methanoculleus marisnigri, UniProt A3CWV0)",
  "T1 construct": "gene Memar_1924; full-length; N-terminal His6-SUMO fusion cut off with ULP1; expressed in E. coli Rosetta (DE3) pLysS; detergent-purified; catalytic D162 and D220; eight predicted TMDs",
  "T1 sequence (A3CWV0 1-301)": "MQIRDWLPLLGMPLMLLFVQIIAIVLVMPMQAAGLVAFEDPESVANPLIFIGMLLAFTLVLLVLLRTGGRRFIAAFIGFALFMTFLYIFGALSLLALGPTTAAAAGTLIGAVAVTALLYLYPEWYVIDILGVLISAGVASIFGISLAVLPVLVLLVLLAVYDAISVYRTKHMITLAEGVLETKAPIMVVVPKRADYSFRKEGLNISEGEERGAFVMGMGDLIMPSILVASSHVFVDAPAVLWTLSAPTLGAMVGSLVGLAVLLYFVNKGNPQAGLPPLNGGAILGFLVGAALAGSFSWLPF",
  "experiment": "cleavage of Gurken-TMD (MBP chimera), anti-MBP western blot with densitometry",
  "assay_type": "biochemical",
  "conditions": "transition-state analog; 0.8 µM enzyme, 2 h pre-incubation at 37 °C, 0.8 µM Gurken-TMD, 8 h; 31C at 10-100 µM; IC50 not given",
  "data": [
    {"smiles": "COC(=O)C(NC(=O)C(CC(C)C)NC(=O)N(Cc1ccccc1)CC(O)C(Cc1ccccc1)NC(=O)OC(C)(C)C)C(C)C", "note": "(stereo not shown) [31C]", "values": [
      {"measurement": "complete inhibition of activity", "result": "~ 100 µM"}
    ]}
  ]
}
